Earlier results, collected in US4081530A, “Extended chain derivatives of somatostatin” (Ayerst, McKenna & Harrison Limited, priority 1975, dated 1978).

Conditions: somatostatin-like activity

[Ala^3,14 ]-somatostatin (AGAKNFFWKTFTSA; Somatostatin-14; UniProt P61278 103-116, looked up, variant C3A C14A) [somatostatin analog synthesised by solid phase methods (Sarantakis et al.)]
activity as share of somatostatin's potency: about 0.01%
